Data from patent US6544989B2, “Benzazoles: benzoxazole, benzthiazole and benzimidazole derivatives” (Syngenta Limited, priority 1998, dated 2003).

Columns and labels:
Puccinia recondita = test: Fungicidal test, Puccinia recondita (PUCCRT) on wheat, PRCO; format: in vivo; conditions: METHOD 2 (unbanded)
Septoria nodorum = test: Fungicidal test, Septoria nodorum (LEPTNO) on wheat, PRCO; format: in vivo; conditions: METHOD 2 (unbanded)
Pyricularia oryzae = format: in vivo; conditions: METHOD 2 (unbanded)
[1] = tested on: Erysiphe graminis f.sp. tritici; test: Fungicidal test, Erysiphe graminis f.sp. tritici (ERYSGT) on wheat, PRCO; format: in vivo; conditions: 1 d Prot/Foir; METHOD 2 (unbanded)
Uncinula necator = test: Fungicidal test, Uncinula necator (UNCINE) on vines, PRCO; format: in vivo; conditions: METHOD 2 (unbanded)
Venturia inaequalis = test: Fungicidal test, Venturia inaequalis (VENTIN) on apples, PRCO; format: in vivo; conditions: METHOD 2 (unbanded)
Meloidogyne incognita = test: Nematode test, J2 infective juveniles of Meloidogyne incognita, mortality; conditions: 12.5 ppm; J2 infective juveniles suspended in solution; mortality after three days
Musca domestica = conditions: 500 ppm by weight; knockdown assessed 15 minutes after treatment
[2] = tested on: Phytophthora infestans lycopersici; format: in vivo; conditions: METHOD 2 (unbanded)

SMILES: CCC(Cl)c1nc2cc(CC(=O)Nc3snc(C)c3Cl)ccc2o1 (racemic) [95(A3)]
- PUCCRT 1 d Prot/Foir PRCO (Puccinia recondita): 100
- LEPTNO 1 d Prot/Foir PRCO (Septoria nodorum): 8
- PYRIOR 1 d Prot/Foir PRCO (Pyricularia oryzae): 96
- ERYSGT 1 d Prot/Foir PRCO [1]: 68
- UNCINE 1 d Prot/Foir PRCO (Uncinula necator): 100
- VENTIN 1 d Prot/Foir PRCO (Venturia inaequalis): 98
- MELGIN = Meloidogyne incognita, grading of mortality (score) (Meloidogyne incognita): 0 (0 indicates less than 40% mortality)

SMILES: Cc1nsc(NC(=O)Cc2ccc3oc(C(C)C#N)nc3c2)c1Cl (racemic) [115(A3)]
- PUCCRT 1 d Prot/Foir PRCO (Puccinia recondita): 45
- LEPTNO 1 d Prot/Foir PRCO (Septoria nodorum): 8
- PYRIOR 1 d Prot/Foir PRCO (Pyricularia oryzae): 5
- ERYSGT 1 d Prot/Foir PRCO [1]: −3
- UNCINE 1 d Prot/Foir PRCO (Uncinula necator): 2
- VENTIN 1 d Prot/Foir PRCO (Venturia inaequalis): 15
- MELGIN = Meloidogyne incognita, grading of mortality (score) (Meloidogyne incognita): 0 (0 indicates less than 40% mortality)

SMILES: Cc1nc2cc(CC(=O)Nc3snc(C)c3Br)ccc2o1 [2(A4)]
- PUCCRT 1 d Prot/Foir PRCO (Puccinia recondita): 100
- LEPTNO 1 d Prot/Foir PRCO (Septoria nodorum): −12
- MUSCDO AC = Musca domestica (knockdown), score (Musca domestica): 5 (5 indicates 40-79% mortality)
- PYRIOR 1 d Prot/Foir PRCO (Pyricularia oryzae): 99
- ERYSGT 1 d Prot/Foir PRCO [1]: 97
- UNCINE 1 d Prot/Foir PRCO (Uncinula necator): 90
- PHYTIN 1 d Prot/Foir PRCO [2]: 100
- VENTIN 1 d Prot/Foir PRCO (Venturia inaequalis): 92
- MELGIN = Meloidogyne incognita, grading of mortality (score) (Meloidogyne incognita): 0 (0 indicates less than 40% mortality)

SMILES: Cc1nc2cc(CC(=O)Nc3snc(C)c3C#N)ccc2o1 [2(A5)]
- PUCCRT 1 d Prot/Foir PRCO (Puccinia recondita): 28
- LEPTNO 1 d Prot/Foir PRCO (Septoria nodorum): −2
- PYRIOR 1 d Prot/Foir PRCO (Pyricularia oryzae): 31
- ERYSGT 1 d Prot/Foir PRCO [1]: 18
- UNCINE 1 d Prot/Foir PRCO (Uncinula necator): 3
- PHYTIN 1 d Prot/Foir PRCO [2]: 19
- VENTIN 1 d Prot/Foir PRCO (Venturia inaequalis): 19
- MELGIN = Meloidogyne incognita, grading of mortality (score) (Meloidogyne incognita): 5 (5 indicates 40-79% mortality)

SMILES: CCc1nsc(NC(=O)Cc2ccc3oc(C)nc3c2)c1Cl [2(A8)]
- PUCCRT 1 d Prot/Foir PRCO (Puccinia recondita): 100
- LEPTNO 1 d Prot/Foir PRCO (Septoria nodorum): 9
- PYRIOR 1 d Prot/Foir PRCO (Pyricularia oryzae): 75
- ERYSGT 1 d Prot/Foir PRCO [1]: 54
- UNCINE 1 d Prot/Foir PRCO (Uncinula necator): 74
- PHYTIN 1 d Prot/Foir PRCO [2]: 74
- VENTIN 1 d Prot/Foir PRCO (Venturia inaequalis): 8
- MELGIN = Meloidogyne incognita, grading of mortality (score) (Meloidogyne incognita): 0 (0 indicates less than 40% mortality)

SMILES: Cc1nc2ccc(CC(=O)Nc3snc(C)c3Cl)cc2[nH]1 [2(A43)]
- PUCCRT 1 d Prot/Foir PRCO (Puccinia recondita): 7
- LEPTNO 1 d Prot/Foir PRCO (Septoria nodorum): −3
- MUSCDO AC = Musca domestica (knockdown), score (Musca domestica): 0 (0 indicates less than 40% mortality)
- PYRIOR 1 d Prot/Foir PRCO (Pyricularia oryzae): 48
- ERYSGT 1 d Prot/Foir PRCO [1]: 20
- UNCINE 1 d Prot/Foir PRCO (Uncinula necator): 11
- PHYTIN 1 d Prot/Foir PRCO [2]: 18
- VENTIN 1 d Prot/Foir PRCO (Venturia inaequalis): 14
- MELGIN = Meloidogyne incognita, grading of mortality (score) (Meloidogyne incognita): 5 (5 indicates 40-79% mortality)

SMILES: CCCc1nc2cc(CC(=O)Nc3snc(C)c3Cl)ccc2s1 [4(A13)]
- PUCCRT 1 d Prot/Foir PRCO (Puccinia recondita): 100
- LEPTNO 1 d Prot/Foir PRCO (Septoria nodorum): 20
- MUSCDO AC = Musca domestica (knockdown), score (Musca domestica): 9 (9 indicates 80-100% mortality)
- PYRIOR 1 d Prot/Foir PRCO (Pyricularia oryzae): 100
- ERYSGT 1 d Prot/Foir PRCO [1]: 100
- UNCINE 1 d Prot/Foir PRCO (Uncinula necator): 100
- VENTIN 1 d Prot/Foir PRCO (Venturia inaequalis): 55
- MELGIN = Meloidogyne incognita, grading of mortality (score) (Meloidogyne incognita): 0 (0 indicates less than 40% mortality)

SMILES: CCCc1nc2ccc(CC(=O)Nc3snc(C)c3Cl)cc2[nH]1 [4(A43)]
- PUCCRT 1 d Prot/Foir PRCO (Puccinia recondita): 31
- LEPTNO 1 d Prot/Foir PRCO (Septoria nodorum): 0
- PYRIOR 1 d Prot/Foir PRCO (Pyricularia oryzae): 38
- UNCINE 1 d Prot/Foir PRCO (Uncinula necator): 35
- PHYTIN 1 d Prot/Foir PRCO [2]: 0

SMILES: Cc1nsc(NC(=O)Cc2ccc3nc(C(C)(C)C)[nH]c3c2)c1Cl [9(A43)]
- PUCCRT 1 d Prot/Foir PRCO (Puccinia recondita): 25
- LEPTNO 1 d Prot/Foir PRCO (Septoria nodorum): −4
- MUSCDO AC = Musca domestica (knockdown), score (Musca domestica): 0 (0 indicates less than 40% mortality)
- PYRIOR 1 d Prot/Foir PRCO (Pyricularia oryzae): 26
- ERYSGT 1 d Prot/Foir PRCO [1]: 7
- UNCINE 1 d Prot/Foir PRCO (Uncinula necator): 7
- PHYTIN 1 d Prot/Foir PRCO [2]: 0
- VENTIN 1 d Prot/Foir PRCO (Venturia inaequalis): 38
- MELGIN = Meloidogyne incognita, grading of mortality (score) (Meloidogyne incognita): 0 (0 indicates less than 40% mortality)

SMILES: Cc1cc(NC(=O)Cc2ccc3oc(CC(C)(C)C)nc3c2)sn1 [15(A1)]
- PUCCRT 1 d Prot/Foir PRCO (Puccinia recondita): 96
- LEPTNO 1 d Prot/Foir PRCO (Septoria nodorum): 4
- MUSCDO AC = Musca domestica (knockdown), score (Musca domestica): 5 (5 indicates 40-79% mortality)
- PYRIOR 1 d Prot/Foir PRCO (Pyricularia oryzae): 87
- ERYSGT 1 d Prot/Foir PRCO [1]: 43
- UNCINE 1 d Prot/Foir PRCO (Uncinula necator): 100
- PHYTIN 1 d Prot/Foir PRCO [2]: 100
- VENTIN 1 d Prot/Foir PRCO (Venturia inaequalis): 54
- MELGIN = Meloidogyne incognita, grading of mortality (score) (Meloidogyne incognita): 0 (0 indicates less than 40% mortality)

SMILES: Cc1nsc(NC(=O)Cc2ccc3oc(CC(C)(C)C)nc3c2)c1Br [15(A4)]
- PUCCRT 1 d Prot/Foir PRCO (Puccinia recondita): 99
- LEPTNO 1 d Prot/Foir PRCO (Septoria nodorum): 19
- MUSCDO AC = Musca domestica (knockdown), score (Musca domestica): 9 (9 indicates 80-100% mortality)
- PYRIOR 1 d Prot/Foir PRCO (Pyricularia oryzae): 98
- ERYSGT 1 d Prot/Foir PRCO [1]: 91
- UNCINE 1 d Prot/Foir PRCO (Uncinula necator): 100
- PHYTIN 1 d Prot/Foir PRCO [2]: 100
- VENTIN 1 d Prot/Foir PRCO (Venturia inaequalis): 54
- MELGIN = Meloidogyne incognita, grading of mortality (score) (Meloidogyne incognita): 0 (0 indicates less than 40% mortality)

SMILES: Cc1nsc(NC(=O)Cc2ccc3oc(CC(C)(C)C)nc3c2)c1C#N [15(A5)]
- PUCCRT 1 d Prot/Foir PRCO (Puccinia recondita): 84
- LEPTNO 1 d Prot/Foir PRCO (Septoria nodorum): −2
- PYRIOR 1 d Prot/Foir PRCO (Pyricularia oryzae): 81
- ERYSGT 1 d Prot/Foir PRCO [1]: 15
- UNCINE 1 d Prot/Foir PRCO (Uncinula necator): 83
- PHYTIN 1 d Prot/Foir PRCO [2]: 45
- VENTIN 1 d Prot/Foir PRCO (Venturia inaequalis): 3
- MELGIN = Meloidogyne incognita, grading of mortality (score) (Meloidogyne incognita): 0 (0 indicates less than 40% mortality)
